Earlier results as cited in US20260240855A1 (priority 2023, published 2026).

Tested on: extracellular signal-regulated kinase (ERK)
Settings: preclinical studies

C=CC(=O)N1CCN(c2nc(=O)n(-c3c(C)ccnc3C(C)C)c3nc(-c4c(O)cccc4F)c(F)cc23)[C@@H](C)C1 (atropisomer, axis not shown; (M)) [Sotorasib, 6-fluoro-7-(2-fluoro-6-hydroxyphenyl)-(1M)-1-[4-methyl-2-(propan-2-yl)pyridin-3-yl]-4-[(2S)-2-methyl-4-(prop-2-enoyl)piperazin-1-yl]pyrido[2,3-d]pyrimidin-2(1H)-one]
phosphorylation of extracellular signal-regulated kinase (ERK): inhibited nearly all detectable phosphorylation
